Paper PMC12150326 (The Journal of Organic Chemistry, 2025)
Where two headings read alike, the source gives them in different places.

Columns and labels:
Type in all cases: cell-based, human
OVCAR-8 = tested on: OVCAR-8
Method: (§1) (aR)-6, (aS)-6, (aS)-iso -6, and (aR)-iso -6 were submitted to the 60 Cell Screen panel and evaluated at 5 doses (100 μM, 10 μM, 1 μM, 0.1 μM, and 0.01 μM). […] The complete report from this submission is available at the publisher’s Web site as a separate Supporting Information file. For COMPARE analysis, TGI levels of response for (aR)-DM-MTC (6) and (aS)-iso-DM-MTC were compared to those of several established tubulin inhibitors previously tested in the NCI-60 screen.

MALME-3M = tested on: MALME-3M
Method: as §1

CAKI-1 = tested on: CAKI-1
Method: as §1

NCI 60 cell lines = tested on: NCI 60 cell lines
Method: as §1

T-47D = tested on: T-47D
Method: as §1

U251 = tested on: U251
Method: as §1

SK-MEL-5 = tested on: SK-MEL-5
Method: as §1

UACC-257 = tested on: UACC-257
Method: as §1

ACHN = tested on: ACHN
Method: as §1

MDA-MB-468 = tested on: MDA-MB-468
Method: as §1

NCI-H23 = tested on: NCI-H23
Method: as §1

RPMI-8226 = tested on: RPMI-8226
Method: as §1

HCC-2998 = tested on: HCC-2998
Method: as §1

MCF7 = tested on: MCF7
Method: as §1

SK-MEL-2 = tested on: SK-MEL-2
Method: as §1

OVCAR-4 = tested on: OVCAR-4
Method: as §1

NCI-H226 = tested on: NCI-H226
Method: as §1

LOX IMVI = tested on: LOX IMVI
Method: as §1

786-0 = tested on: 786-0
Method: as §1

MDA-MB-435 = tested on: MDA-MB-435
Method: as §1

HOP-92 = tested on: HOP-92
Method: as §1

NCI/ADR-RES = tested on: NCI/ADR-RES
Method: as §1

SN12C = tested on: SN12C
Method: as §1

SNB-19 = tested on: SNB-19
Method: as §1

MDA-MB-231/ATCC = tested on: MDA-MB-231/ATCC
Method: as §1

HL-60(TB) = tested on: HL-60(TB)
Method: as §1

With `COc1cc(C)c(-c2ccc(OC)c(=O)cc2C)c(OC)c1OC` (single isomer, unassigned) [(aR)-6] the Log10GI50 (OVCAR-8) was -5.47 Molar, the Log10LC50 (OVCAR-8) was > -4.00 Molar and the Log10TGI (OVCAR-8) was > -4.00 Molar. The GI50 (OVCAR-8; Homo sapiens) was 3.39 µM, the Log10GI50 (OVCAR-8; listed as (aR)-DM-MTC) was -5.47 Molar and the Log10LC50 (MALME-3M) was > -4.00 Molar. The Log10TGI (MALME-3M) was > -4.00 Molar, the Log10GI50 (CAKI-1) was -6.03 Molar and the Log10LC50 (CAKI-1) was > -4.00 Molar. For the same compound, the Log10TGI (CAKI-1) was > -4.00 Molar, the GI50 (CAKI-1; Homo sapiens) was 0.93 µM and the Log10GI50 (CAKI-1; listed as (aR)-DM-MTC) was -6.03 Molar. For the same compound, the “fold less potent than colchicine, growth inhibition” value (NCI 60 cell lines) was 10 to 50 fold, the selectivity range (NCI 60 cell lines; NCI-60, GI50 level) was 2.39 log units and the “Log10 Range at TGI” value (NCI 60 cell lines; NCI-60 cell line selectivity, listed as (aR)-DM-MTC (6)) was 2.13. The GI50 (NCI 60 cell lines; NCI-60 mean) was 2.4 µM, the “Mean TGI” value (NCI 60 cell lines; NCI-60 mean total growth inhibition) was 63 µM and the “Delta Log10GI50” value (NCI 60 cell lines; mean graph) was 0.95. For the same compound, the “Delta Log10LC50” value (NCI 60 cell lines; mean graph) was 0.73, the “Delta Log10TGI” value (NCI 60 cell lines; mean graph) was 1.93 and the “Range Log10GI50” value (NCI 60 cell lines; mean graph) was 2.39. The “Range Log10LC50” value (NCI 60 cell lines; mean graph) was 0.74, the “Range Log10TGI” value (NCI 60 cell lines; mean graph) was 2.13 and the “_MID Log10GI50” value (NCI 60 cell lines; mean graph midpoint) was -5.62 Molar. The “_MID Log10LC50” value (NCI 60 cell lines; mean graph midpoint) was -4.01 Molar, the “_MID Log10TGI” value (NCI 60 cell lines; mean graph midpoint) was -4.2 Molar and the Log10GI50 (T-47D) was -5.15 Molar. The Log10LC50 (T-47D) was > -4.00 Molar, the Log10TGI (T-47D) was > -4.00 Molar and the GI50 (T-47D; Homo sapiens, T47D) was 7.08 µM. The Log10GI50 (T-47D; listed as (aR)-DM-MTC) was -5.15 Molar, the Log10GI50 (U251) was -5.53 Molar and the Log10LC50 (U251) was > -4.00 Molar. The Log10TGI (U251) was > -4.00 Molar, the GI50 (U251; Homo sapiens, U-251) was 2.95 µM and the Log10GI50 (U251; listed as (aR)-DM-MTC) was -5.53 Molar. The Log10GI50 (SK-MEL-5) was -5.50 Molar, the Log10LC50 (SK-MEL-5) was > -4.00 Molar and the Log10TGI (SK-MEL-5) was -4.42 Molar. For the same compound, the GI50 (SK-MEL-5; Homo sapiens) was 3.16 µM, the Log10GI50 (SK-MEL-5; listed as (aR)-DM-MTC) was -5.5 Molar and the Log10GI50 (UACC-257) was -5.11 Molar. For the same compound, the Log10LC50 (UACC-257) was > -4.00 Molar, the Log10TGI (UACC-257) was > -4.00 Molar and the GI50 (UACC-257; Homo sapiens) was 7.76 µM. For the same compound, the Log10GI50 (UACC-257; listed as (aR)-DM-MTC) was -5.11 Molar, the Log10GI50 (ACHN) was -5.27 Molar and the Log10LC50 (ACHN) was > -4.00 Molar. For the same compound, the Log10TGI (ACHN) was > -4.00 Molar, the GI50 (ACHN; Homo sapiens) was 5.37 µM and the Log10GI50 (ACHN; listed as (aR)-DM-MTC) was -5.27 Molar. For the same compound, the Log10GI50 (MDA-MB-468) was -5.97 Molar, the Log10LC50 (MDA-MB-468) was > -4.00 Molar and the Log10TGI (MDA-MB-468) was > -4.00 Molar. It also gave a GI50 (MDA-MB-468; Homo sapiens) of 1.07 µM, a Log10GI50 (MDA-MB-468; listed as (aR)-DM-MTC) of -5.97 Molar and a Log10GI50 (NCI-H23) of -5.39 Molar. For the same compound, the Log10LC50 (NCI-H23) was > -4.00 Molar, the Log10TGI (NCI-H23) was > -4.00 Molar and the GI50 (NCI-H23; Homo sapiens) was 4.07 µM. For the same compound, the Log10GI50 (NCI-H23; listed as (aR)-DM-MTC) was -5.39 Molar, the Log10GI50 (RPMI-8226) was -5.39 Molar and the Log10LC50 (RPMI-8226) was > -4.00 Molar. The Log10TGI (RPMI-8226) was > -4.00 Molar, the GI50 (RPMI-8226; Homo sapiens) was 4.07 µM and the Log10GI50 (RPMI-8226; listed as (aR)-DM-MTC) was -5.39 Molar. For the same compound, the Log10GI50 (HCC-2998) was -5.55 Molar, the Log10LC50 (HCC-2998) was > -4.00 Molar and the Log10TGI (HCC-2998) was > -4.00 Molar. It also gave a GI50 (HCC-2998; Homo sapiens) of 2.82 µM, a Log10GI50 (HCC-2998; listed as (aR)-DM-MTC) of -5.55 Molar and a Log10GI50 (MCF7) of -6.11 Molar. The Log10LC50 (MCF7) was > -4.00 Molar, the Log10TGI (MCF7) was > -4.00 Molar and the GI50 (MCF7; Homo sapiens) was 0.78 µM. The Log10GI50 (MCF7; listed as (aR)-DM-MTC) was -6.11 Molar, the Log10GI50 (SK-MEL-2) was -6.05 Molar and the Log10LC50 (SK-MEL-2) was > -4.00 Molar. It also gave a Log10TGI (SK-MEL-2) of -5.18 Molar, a GI50 (SK-MEL-2; Homo sapiens) of 0.89 µM and a Log10GI50 (SK-MEL-2; listed as (aR)-DM-MTC) of -6.05 Molar. For the same compound, the Log10GI50 (OVCAR-4) was -4.35 Molar, the Log10LC50 (OVCAR-4) was > -4.00 Molar and the Log10TGI (OVCAR-4) was > -4.00 Molar. For the same compound, the GI50 (OVCAR-4; Homo sapiens) was 44.7 µM, the Log10GI50 (OVCAR-4; listed as (aR)-DM-MTC) was -4.35 Molar and the Log10GI50 (NCI-H226) was -5.41 Molar. The Log10LC50 (NCI-H226) was > -4.00 Molar, the Log10TGI (NCI-H226) was > -4.00 Molar and the GI50 (NCI-H226; Homo sapiens) was 3.89 µM. The Log10GI50 (NCI-H226; listed as (aR)-DM-MTC) was -5.41 Molar, the Log10GI50 (LOX IMVI) was -5.69 Molar and the Log10LC50 (LOX IMVI) was > -4.00 Molar. The Log10TGI (LOX IMVI) was > -4.00 Molar, the GI50 (LOX IMVI; Homo sapiens) was 2.04 µM and the Log10GI50 (LOX IMVI; listed as (aR)-DM-MTC) was -5.69 Molar. The Log10GI50 (786-0) was -5.35 Molar, the Log10LC50 (786-0) was > -4.00 Molar and the Log10TGI (786-0) was > -4.00 Molar. For the same compound, the GI50 (786-0; Homo sapiens) was 4.47 µM, the Log10GI50 (786-0; listed as (aR)-DM-MTC) was -5.35 Molar and the Log10GI50 (MDA-MB-435) was -6.57 Molar. For the same compound, the Log10LC50 (MDA-MB-435) was > -4.00 Molar, the Log10TGI (MDA-MB-435) was -6.13 Molar and the GI50 (MDA-MB-435; Homo sapiens) was 0.27 µM. The Log10GI50 (MDA-MB-435; listed as (aR)-DM-MTC) was -6.57 Molar, the Log10GI50 (HOP-92) was -5.45 Molar and the Log10LC50 (HOP-92) was > -4.00 Molar. The Log10TGI (HOP-92) was > -4.00 Molar, the GI50 (HOP-92; Homo sapiens) was 3.55 µM and the Log10GI50 (HOP-92; listed as (aR)-DM-MTC) was -5.45 Molar. For the same compound, the Log10GI50 (NCI/ADR-RES) was -5.76 Molar, the Log10LC50 (NCI/ADR-RES) was > -4.00 Molar and the GI50 (NCI/ADR-RES; Homo sapiens) was 1.74 µM. For the same compound, the Log10GI50 (NCI/ADR-RES; listed as (aR)-DM-MTC) was -5.76 Molar, the Log10GI50 (SN12C) was -5.46 Molar and the Log10LC50 (SN12C) was > -4.00 Molar. For the same compound, the Log10TGI (SN12C) was > -4.00 Molar, the GI50 (SN12C; Homo sapiens) was 3.47 µM and the Log10GI50 (SN12C; listed as (aR)-DM-MTC) was -5.46 Molar. The Log10GI50 (SNB-19) was -5.53 Molar, the Log10LC50 (SNB-19) was > -4.00 Molar and the Log10TGI (SNB-19) was > -4.00 Molar. It also gave a GI50 (SNB-19; Homo sapiens) of 2.95 µM, a Log10GI50 (SNB-19; listed as (aR)-DM-MTC) of -5.53 Molar and a Log10GI50 (MDA-MB-231/ATCC) of -5.59 Molar. For the same compound, the Log10LC50 (MDA-MB-231/ATCC) was > -4.00 Molar, the Log10TGI (MDA-MB-231/ATCC) was > -4.00 Molar and the GI50 (MDA-MB-231/ATCC; Homo sapiens) was 2.57 µM. For the same compound, the Log10GI50 (MDA-MB-231/ATCC; listed as (aR)-DM-MTC) was -5.59 Molar, the Log10GI50 (HL-60(TB)) was -6.16 Molar and the Log10LC50 (HL-60(TB)) was > -4.00 Molar. The Log10TGI (HL-60(TB)) was -5.10 Molar, the GI50 (HL-60(TB); Homo sapiens) was 0.69 µM and the Log10GI50 (HL-60(TB); listed as (aR)-DM-MTC) was -6.16 Molar.
